Ends that are not written are not given here. * marks the point of attachment. pNA = O=[N+]([O-])c1ccc(N*)cc1
T1: activated protease C-E-6XHIS (Homo sapiens, UniProt Q9GZN4)
T1 construct: made in house; host or cells: Sf9 insect cells (baculovirus, pFastBac1)
T1 sequence (Q9GZN4 with tags, fused parts or gaps): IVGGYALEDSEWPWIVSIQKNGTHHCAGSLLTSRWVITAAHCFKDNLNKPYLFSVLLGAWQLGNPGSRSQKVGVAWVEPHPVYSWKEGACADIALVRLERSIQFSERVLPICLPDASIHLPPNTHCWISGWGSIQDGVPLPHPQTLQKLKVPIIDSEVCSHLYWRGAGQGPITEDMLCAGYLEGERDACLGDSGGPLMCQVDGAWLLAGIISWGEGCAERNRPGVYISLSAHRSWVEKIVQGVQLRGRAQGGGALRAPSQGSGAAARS


Tests used:
[1] = target: T1, activated protease C-E-6XHIS; experiment: Chromogenic amidolytic activity assay, release of para-nitroaniline (pNA) from synthetic substrates; assay type: biochemical; conditions: recombinant activated protease C-E-6XHIS; substrate 500 uM; 10 mM Tris-HCl pH 7.8, 25 mM NaCl, 25 mM imidazole; 37° C., 90 minutes; 405 nm; N.A. = No Activity
Protocol: Eluted protein concentration was determined by a Micro BCA Kit (Pierce, Rockford, Ill.) using bovine serum albumin as a standard. Amidolytic activities of the activated protease C-E-6XHIS was monitored by release of para-nitroaniline (pNA) from the synthetic substrates indicated in Table 1. The chromogenic substrates used in these studies were all commercially available (Bachem California Inc., Torrance, Pa.; American Diagnostica Inc., Greenwich, Conn.; Kabi Pharmacia Hepar Inc., Franklin, Ohio). Assay mixtures contained chromogenic substrates at 500 uM and 10 mM Tris-HCl (pH 7.8), 25 mM NaCl, and 25 mM imidazole. Release of pNA was measured over 90 minutes at 37° C. on a micro-plate reader (Molecular Devices, Menlo Park, Calif.) with a 405 mn absorbance filter. The initial reaction rates (Vmax, mOD/min) were determined from plots of absorbance versus time using Softmax (Molecular Devices, Menlo Park, Calif.). The specific activities (nmole pNA produced/min/μg protein) of the activated protease C-E-6XHIS for the various substrates are presented in Table 1.
Amidolytic activities of the activated serine proteases are monitored by release of para-nitroaniline (pNA) from synthetic substrates that are commercially available (Bachem California Inc., Torrance, Pa.; American Diagnostica Inc., Greenwich, Conn.; Kabi Pharmacia Hepar Inc., Franklin, Ohio). Assay mixtures contain chromogenic substrates in 500 uM and 10 mM TRIS-HCl (pH 7.8), 25 mM NaCl, and 25 mM imidazole. Release of pNA is measured over 120 min at 37° C. on a micro-plate reader (Molecular Devices, Menlo Park, Calif.) with a 405 nm absorbance filter. The initial reaction rates (Vmax, mOD/min) are determined from plots of absorbance versus time using Softmax (Molecular Devices, Menlo Park, Calif.). […] Although in the present case chromogenic activity is monitored by an increase in absorbance, fluorogenic assays or other methods such as FRET to measure proteolytic activity as mentioned above, can be employed. […]

[2] = Chromogenic amidolytic activity of the purified unactivated zymogen; assay type: biochemical, human; conditions: not cleaved with enterokinase, same chromogenic substrates

Molecule	Specific Activity [1]	chromogenic amidolytic activity [2]
H—D—Lys(CBO)—Pro—Arg—pNA	0.002 ± 0.000 nmole pNA produced/min/μg protein	
H—D—Pro—HHT—Arg—pNA	0.008 ± 0.001 nmole pNA produced/min/μg protein	
Phe-Arg-pNA	0.058 ± 0.006 nmole pNA produced/min/μg protein	
PFEK-protease C-E-6XHIS zymogen: secreted recombinant zymogen of human serine protease C-E catalytic domain with FLAG, enterokinase site and 6XHIS tag, from Sf9 cells (protein) MDSKGSSQKSRLLLLLVVSNLLLCQGVVSDYKDDDDVDAAALAAPFDDDDKIVGGYALEDSEWPWIVSIQKNGTHHCAGSLLTSRWVITAAHCFKDNLNKPYLFSVLLGAWQLGNPGSRSQKVGVAWVEPHPVYSWKEGACADIALVRLERSIQFSERVLPICLPDASIHLPPNTHCWISGWGSIQDGVPLPHPQTLQKLKVPIIDSEVCSHLYWRGAGQGPITEDMLCAGYLEGERDACLGDSGGPLMCQVDGAWLLAGIISWGEGCAERNRPGVYISLSAHRSWVEKIVQGVQLRGRAQGGGALRAPSQGSGAAARSSRHHHHHH		No measurable chromogenic amidolytic activity

Source: US6849421B2, “Assays for compounds modulating human serine protease C-E” (Ortho-McNeil Pharmaceutical, Inc., priority 1999, dated 2005)
